Source: PMC6380167, “Phosphoglycolate has profound metabolic effects but most likely no role in a metabolic DNA response in cancer cell lines” (Biochemical Journal, 2019)
pKi: −log10 of the molar value.

Target: T1, enolase (Oryctolagus cuniculus, UniProt P25704)
T1 construct: gene ENO3; purified rabbit muscle enolase (Sigma)
Test: coupled pyruvate kinase/lactate dehydrogenase enzyme assay, NADH absorption at […] nm
Type: biochemical

T1 sequence (P25704 2-434): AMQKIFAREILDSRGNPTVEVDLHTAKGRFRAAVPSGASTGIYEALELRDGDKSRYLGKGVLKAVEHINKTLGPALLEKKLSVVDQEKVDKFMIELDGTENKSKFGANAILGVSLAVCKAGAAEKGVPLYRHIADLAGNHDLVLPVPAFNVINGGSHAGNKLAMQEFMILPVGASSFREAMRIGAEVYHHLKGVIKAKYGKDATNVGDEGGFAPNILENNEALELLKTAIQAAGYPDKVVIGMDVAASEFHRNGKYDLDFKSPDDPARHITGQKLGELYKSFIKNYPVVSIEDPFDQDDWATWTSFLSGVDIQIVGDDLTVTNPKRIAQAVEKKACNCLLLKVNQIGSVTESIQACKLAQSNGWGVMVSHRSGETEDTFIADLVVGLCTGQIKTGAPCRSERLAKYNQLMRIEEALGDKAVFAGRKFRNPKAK

Molecule `O=C(O)COP(=O)(O)O` [phosphoglycolate] has a pKi of roughly 3.80.
